Assay results published in patent publication US20110065202A1, “Method for Examination of Alzheimer's Disease” (EISAI R&D MANAGEMENT CO., LTD., priority 2008, published 2011).
“And” between values parts separate entries of the source, which are not always exact repeats. Equal values may be shown once.

Assay: LC/MS measurement of lidocaine and its metabolite MEGX in cerebrospinal fluid of lidocaine-administered subjects
Type: in vivo, human
Conditions: for Lidocaine peak ratio to lysine / Lidocaine peak ratio to lysine, average: cerebrospinal fluid; for Lidocaine peak ratio to lysine: individual samples, lidocaine hydrochloride standard dose 200 mg at the puncture site, LC/MS; for concentration detected in cerebrospinal fluid, AD patients versus healthy subjects: cerebrospinal fluids, result in words
Protocol: Cerebrospinal fluids of 17 Alzheimer's disease patients (10 male and 7 female Caucasions) and 17 healthy subjects of similar age, sex and race were used as samples. The samples were collected under epidural anesthesia with lidocaine (lidocaine hydrochloride (standard dose: 200 mg) was hypodermically administered at the puncture site). Protein components were removed from 150 microliters of each cerebrospinal fluid by using an ultrafiltration filter of 5000 NMWL (Ultrafree-MC BIOMAX-5, UFC3BCC00, produced by Millipore). To the cerebrospinal fluid, 25 microliters of a solution containing L-Valine-^13C5, ^15N or L-Lysine-^13C5, ^15N as an internal standard substance (0.1% formic acid, 50% methanol solvent) and 800 microliters of a 0.15% hydrochloric acid solution were added. This sample solution was applied to a solid phase extraction column, Oasis MCX (10 mg), produced by Waters. Washing was performed with 1 mL of water first, then with 1 mL of 50% methanol solvent containing 0.1% formic acid, subsequently with 1 mL of water, and with 1 mL of methanol. Then, elution was performed with 1 mL of a mixture of 25% aqueous ammonia and methanol (2:3, v/v), the eluate was dried, the residue was dissolved again in 25 microliters of 50% methanol, and insoluble substances were removed by using a PVDF membrane filter having a pore size of 0.22 micrometer to prepare a sample for LC/MS.
As for the material packed in the LC column, Primesep A resin (particle size: 5 micrometers, pore size: 100 angstroms) of SIELC Technologies (Prospect Heights, Ill.) was packed in a fused silica capillary having an internal diameter of 150 micrometers (internal surface was treated with TC-WAX, produced by GL Sciences, catalog number: 1010-27012) of which tip was tapered to a diameter of about 8 micrometers beforehand with a laser-based puller P-2000 (produced by Sutter) at a height of about 15 cm under a nitrogen gas pressure of about 7 MPa, and this was used as a column. 50% Methanol containing 0.1% formic acid was used as a mobile phase A, and 90% methanol containing 2% trifluoroacetic acid in addition to 0.1% formic acid was used as a mobile phase B. The concentration gradient of the mobile phase B was, from the start of elution, as follows: 0 minute (0%)-5 minutes (0%)-25 minutes (25%)-25.1 minutes (50%)-50 minutes (100%)-60 minutes (100%), and the flow rate was 1 microliter per minute. Since valine as the internal standard substance was eluted in a period of 5 to 25 minutes, and lysine as the internal standard substance was eluted in a period of 25 to 50 minutes, either one of the internal standard substances was appropriately used for quantification of each substance depending on the elution time. Qstar Pulsar i produced by Applied Biosystems was used in the cation detection mode as the mass spectrometer with an applied voltage of 2400 volts at a DP value of 10 and an IP value of 100 for improving the sensitivity to perform the measurement for the scanning range of 50 to 700 amu.
Further, by the MS/MS measurement, m/z 86.08 and m/z 58.06 were obtained from the former and the latter, respectively, as the product ions. The former was estimated to be that of lidocaine, and the latter was estimated to be that of MEGX, which is a metabolite of lidocaine. Therefore, specimens of these substances were obtained, and measured under the same LC/MS conditions. As a result, the same retention times and mass spectra were obtained, and thus it was confirmed that these peaks were those of lidocaine and MEXG.

Structure (SMILES)	Lidocaine peak ratio to lysine (AD patient)	Lidocaine peak ratio to lysine, average (average of 17 AD patients)	Lidocaine peak ratio to lysine, average (average of 17 healthy controls)	Lidocaine peak ratio to lysine (healthy control)	concentration detected in cerebrospinal fluid, AD patients versus healthy subjects
CCN(CC)CC(=O)Nc1c(C)cccc1C [Lidocaine, lidocaine]	0.842 and 0.040 and 0.059 and 0.035 and 0.396 and 0.030 and 0.000 (2×) and 0.086 and 0.061 and 0.055 and 0.107 and 0.745 and 0.021 and 0.143 and 0.015 and 0.277	0.2	1.427	1.40 and 0.83 and 2.29 and 1.20 and 1.72 and 2.84 and 1.53 and 0.96 and 0.91 and 1.79 and 1.50 and 0.72 and 1.09 and 1.31 and 0.98 and 0.67 and 2.54	AD patient-specific low concentrations
CCNCC(=O)Nc1c(C)cccc1C [MEGX, monoethylglycinexylidide]	–	–	–	–	AD patient-specific low concentrations
